Experimental findings from patent publication US12667559B2, “Dihydronaphthyridinone compound, and preparation method therefor and medical use thereof” (GENFLEET THERAPEUTICS (SHANGHAI) INC., priority 2020, dated 2026) are described below.

Each structure is given as a SMILES string. Read-outs that look alike come from different tables or passages of the source.

This experiment relates to U937 cells. Description: Inhibitory activity against TNF-α induced programmed cell necrosis (U937 cells, CellTiter-Glo). In kind it is cell-based, human. As to conditions: read-out: U937 IC50.
The mark [1] stands for this setting: U937 cells, human TNF-α and Q-VD-Oph induced necrosis, 48 hours, survival rate.
The mark [2] stands for this setting: Homo sapiens, U-937, 48 h, U937 cells, human TNF-α and Q-VD-Oph induced necrosis, 48 hours, survival rate.
Setting [3] is: U-937, U937 cells, human TNF-α and Q-VD-Oph induced necrosis, 48 hours, survival rate.

`C[C@@](O)(C(=O)N1C[C@@H](N2CCc3ncc(-c4cc(C(F)(F)F)c5c(N)ncnn45)cc3C2=O)[C@@H](F)C1)C(F)(F)F` (mixture of isomers) [Z27, cis-3-(4-amino-5-(trifluoromethyl)pyrrolo[2,1-f][1,2,4]triazin-7-yl)-6-(4-fluoro-1-((R)-3,3,3-trifluoro-2-hydroxy-2-methylpropionyl)pyrrolidin-3-yl)-7,8-dihydro-1,6-naphthyridin-5(6H)-one]: under setting [1], the IC50 (commonly the point on the concentration scale where inhibition reaches its midpoint) stood at 6 nM.
Still for that read-out and setting: for `C[C@@](O)(C(=O)N1C[C@@H](N2CCc3ncc(-c4cc(C(F)(F)F)c5c(N)ncnn45)cc3C2=O)[C@@H](F)C1)C(F)(F)F` (single isomer, unassigned) [Z27-2] the value was 1.9 nM; for `Cc1cc(-c2cnc3c(c2)C(=O)N([C@@H]2CN(C(=O)[C@@](C)(O)C(F)(F)F)C[C@@H]2F)CC3)n2ncnc(N)c12` (single isomer, unassigned) [Z30-2], 3.4 nM.
For the compound `C[C@H](c1ccc(F)cc1)n1cc(N2CCc3ncc(-c4cc(C(F)(F)F)c5c(N)ncnn45)cc3C2=O)cn1` (single isomer, unassigned) [Z35-1], under setting [2], the IC50 was determined as 0.3 nM.
On the same count and under the same terms, the figure for `C[C@@H](c1ccc(F)cc1)n1cc(N2CCc3ncc(-c4cc(C(F)(F)F)c5c(N)ncnn45)cc3C2=O)cn1` (single isomer, unassigned) [Z35-2] is 0.2 nM.
As for `C[C@@H](c1ccc(F)cc1)n1cc(N2CCc3ncc(-c4ccn5nc(N)nc5c4)cc3C2=O)cn1` (single isomer, unassigned) [Z73], under setting [1], the IC50 turned out to be 34 nM.
Turning to `CC(=O)Nc1cn2nc(-c3cnc4c(c3)C(=O)N(c3cnn(C(C)c5ccc(F)cc5)c3)CC4)ccc2n1` (centres unmarked) [Z1], under setting [2], the IC50 was found to be 2.8 nM.
On the same count and under the same terms, the figure for `CC(=O)Nc1cn2nc(-c3cnc4c(c3)C(=O)N(Cc3cc(F)cc(F)c3OC3CCOC3)CC4)ccc2n1` (centres unmarked) [Z3, N-(6-(6-(3,5-difluoro-2-((tetrahydrofuran-3-yl)oxy)benzyl)-5-oxo-5,6,7,8-tetrahydro-1,6-naphthyridin-3-yl)imidazo[1,2-b]pyridazin-2-yl)acetamide] is 1.4 nM; for `CC(=O)Nc1cn2nc(-c3cnc4c(c3)C(=O)N(Cc3cc(F)ccc3OC3CCCC3)CC4)ccc2n1` [Z6, N-(6-(6-(2-(cyclopentyloxy)-5-fluorobenzyl)-5-oxo-5,6,7,8-tetrahydro-1,6-naphthyridin-3-yl)imidazol[1,2-b]pyridazin-2-yl)acetamide] it is 0.4 nM; for `CC(=O)Nc1cn2nc(-c3cnc4c(c3)C(=O)N(C(C)c3ccccc3OC(F)(F)F)CC4)ccc2n1` (centres unmarked) [Z7, N-(6-(5-oxo-6-(1-(2-(trifluoromethoxy)phenyl)ethyl)-5,6,7,8-tetrahydro-1,6-naphthyridin-3-yl)imidazo[1,2-b]pyridazin-2-yl)acetamide] it is 3.9 nM.
Take `CC(=O)Nc1cn2nc(-c3cnc4c(c3)C(=O)N(Cc3cccc(OC(F)(F)F)c3)CC4)ccc2n1` [Z8, N-(6-(5-oxo-6-(3-(trifluoromethoxy)benzyl)-5,6,7,8-tetrahydro-1,6-naphthyridin-3-yl)imidazo[1,2-b]pyridazin-2-yl)acetamide]: the IC50 under setting [2] turned out to be 40.3 nM.
The same measure, in the same setting: for `CC(=O)Nc1cn2nc(-c3cnc4c(c3)C(=O)N(Cc3cc(OC(F)(F)F)ccc3F)CC4)ccc2n1` [Z9, N-(6-(6-(2-fluoro-5-(trifluoromethoxy)benzyl)-5-oxo-5,6,7,8-tetrahydro-1,6-naphthyridin-3-yl)imidazo[1,2-b]pyridazin-2-yl)acetamide] the value was 10.4 nM; for `O=C1c2cc(-c3ccncc3)cnc2CCN1Cc1cc(F)cc(F)c1OC1CCOCC1` [Z11, 6-(3,5-difluoro-2-((tetrahydro-2H-pyran-4-yl)oxy)benzyl)-3-(pyridin-4-yl)-7,8-dihydro-1,6-naphthyridin-5(6H)-one], 31.2 nM.
For the compound `O=C1c2cc(-c3ccn4ncnc4c3)cnc2CCN1Cc1cc(F)cc(F)c1OC1CCOCC1` [Z13, 3-([1,2,4]triazolo[1,5-a]pyridin-7-yl)-6-(3,5-difluoro-2-((tetrahydro-2H-pyran-4-yl)oxy)benzyl)-7,8-dihydro-1,6-naphthyridin-5(6H)-one], the IC50 under setting [2] is 1.7 nM.
In the case of `Cn1c(N)nc2ccc(-c3cnc4c(c3)C(=O)N(Cc3cc(OC(F)(F)F)ccc3F)CC4)cc21` [Z14, 3-(2-amino-1-methyl-1H-benzo[d]imidazol-6-yl)-6-(2-fluoro-5-(trifluoromethoxy)benzyl)-7,8-dihydro-1,6-naphthyridin-5(6H)-one], the IC50 (Homo sapiens, U-937, 48 h) was determined as 10.2 nM.
Regarding `Nc1nc2ccc(-c3cnc4c(c3)C(=O)N(Cc3cc(OC(F)(F)F)ccc3F)CC4)cc2o1` [Z16, 3-(2-aminobenzo[d]oxazol-6-yl)-6-(2-fluoro-5-(trifluoromethoxy)benzyl)-7,8-dihydro-1,6-naphthyridin-5(6H)-one], the IC50 under setting [3] is 10.7 nM.
Consider `Nc1nc2cc(-c3cnc4c(c3)C(=O)N(Cc3cc(OC(F)(F)F)ccc3F)CC4)ccc2o1` [Z17, 3-(2-aminobenzo[d]oxazol-5-yl)-6-(2-fluoro-5-(trifluoromethoxy)benzyl)-7,8-dihydro-1,6-naphthyridin-5(6H)-one], for which, under setting [3], the IC50 came out at 57.5 nM.
Take `Nc1nc2ccc(-c3cnc4c(c3)C(=O)N(Cc3cc(OC(F)(F)F)ccc3F)CC4)cc2[nH]1` [Z18, 3-(2-amino-1H-benzo[d]imidazol-6-yl)-6-(2-fluoro-5-(trifluoromethoxy)benzyl)-7,8-dihydro-1,6-naphthyridin-5(6H)-one]: the IC50 under setting [3] worked out at 70.2 nM.
As for `CC(=O)Nc1cn2nc(-c3cnc4c(c3)C(=O)N(Cc3cc(F)ccc3CN3CCOCC3)CC4)ccc2n1` [Z19], the IC50 under setting [1] was found to be 34.7 nM.
Regarding `CC(=O)Nc1cn2nc(-c3cnc4c(c3)C(=O)N(Cc3cc(F)cc(F)c3OC3CC3)CC4)ccc2n1` [Z20, N-(6-(6-(2-cyclopropoxy-3,5-difluorobenzyl)-5-oxo-5,6,7,8-tetrahydro-1,6-naphthyridin-3-yl)imidazo[1,2-b]pyridazin-2-yl)acetamide], the IC50 under setting [3] was 4.4 nM.
As to `CC(=O)Nc1cn2nc(-c3cnc4c(c3)C(=O)N(Cc3cc(F)ccc3OC3CCOCC3)CC4)ccc2n1` [Z21, N-(6-(6-(5-fluoro-2-((tetrahydro-2H-pyran-4-yl)oxy)benzyl)-5-oxo-5,6,7,8-tetrahydro-1,6-naphthyridin-3-yl)imidazo[1,2-b]pyridazin-2-yl)acetamide], where the note is “Homo sapiens, U-937, 48 h”, the IC50 was found to be 0.6 nM.
For the compound `CC(=O)Nc1cn2nc(-c3cnc4c(c3)C(=O)N(Cc3cc(F)ccc3-c3cnn(C)c3)CC4)ccc2n1` [Z23, N-(6-(6-(5-fluoro-2-(1-methyl-1H-pyrazol-4-yl)benzyl)-5-oxo-5,6,7,8-tetrahydro-1,6-naphthyridin-3-yl)imidazo[1,2-b]pyridazin-2-yl)acetamide], the IC50 under setting [3] stood at 24.3 nM.
Still for that read-out and setting: the figure for `Nc1ncnn2c(-c3cnc4c(c3)C(=O)N(Cc3cc(OC(F)(F)F)ccc3F)CC4)cc(C(F)(F)F)c12` [Z24, 3-(4-amino-5-(trifluoromethyl)pyrrolo[2,1-f][1,2,4]triazin-7-yl)-6-(2-fluoro-5-(trifluoromethoxy)benzyl)-7,8-dihydro-1,6-naphthyridin-5(6H)-one] is 36.5 nM.
In the case of `CC(=O)Nc1cn2nc(-c3cnc4c(c3)C(=O)N(Cc3ncccc3OC3CCOCC3)CC4)ccc2n1` [Z28, N-(6-(5-oxo-6-((3-((tetrahydro-2H-pyran-4-yl)oxy)pyridyl-2-yl)methyl)-5,6,7,8-tetrahydro-1,6-naphthyridin-3-yl)imidazo[1,2-b]pyridazin-2-yl)acetamide], the IC50 under setting [1] amounted to 12.7 nM.
On the same count and under the same terms, the figure for `Cc1cc(-c2cnc3c(c2)C(=O)N([C@@H]2CN(C(=O)[C@@](C)(O)C(F)(F)F)C[C@@H]2F)CC3)n2ncnc(N)c12` [Z30, Cis-3-(4-amino-5-methylpyrrolo[2,1-f][1,2,4]triazin-7-yl)-6-(4-fluoro-1-((R)-3,3,3-trifluoro-2-hydroxy-2-methylpropionyl)pyrrolidin-3-yl)-7,8-dihydro-1,6-naphthyridin-5(6H)-one] is 9.1 nM.
As to `C[C@@](O)(C(=O)N1C[C@@H](N2CCc3ncc(-c4ccc5c(N)ncnn45)cc3C2=O)[C@@H](F)C1)C(F)(F)F` [Z31, cis-3-(4-aminopyrrolo[2,1-f][1,2,4]triazin-7-yl)-6-(4-fluoro-1-((R)-3,3,3-trifluoro-2-hydroxy-2-methylpropionyl)pyrrolidin-3-yl)-7,8-dihydro-1,6-naphthyridin-5(6H)-one], under setting [2], the IC50 stood at 18.2 nM.
Still for that read-out and setting: for `C[C@@](O)(C(=O)N1C[C@@H](F)[C@@H](N2CCc3ncc(-c4ccc5c(N)ncnn45)cc3C2=O)C1)C(F)(F)F` [Z31-1] the value was 7.4 nM; for `C[C@@](O)(C(=O)N1CC[C@H](N2CCc3ncc(-c4cc(C(F)(F)F)c5c(N)ncnn45)cc3C2=O)C1)C(F)(F)F` [Z32], 26.8 nM.
Turning to `CC(C)(O)C(=O)N1CC(F)C(N2CCc3ncc(-c4cc(C(F)(F)F)c5c(N)ncnn45)cc3C2=O)C1` (stereo not drawn) [Z33, cis-3-(4-amino-5-(trifluoromethyl)pyrrolo[2,1-f][1,2,4]triazin-7-yl)-6-(4-fluoro-1-(2-hydroxy-2-methylpropionyl)pyrrolidin-3-yl)-7,8-dihydro-1,6-naphthyridin-5(6H)-one], the IC50 under setting [2] is 338 nM.
Take `CC(c1ccc(F)cc1)n1cc(N2CCc3ncc(-c4cc(C(F)(F)F)c5c(N)ncnn45)cc3C2=O)cn1` (centres unmarked) [Z35]: the IC50 under setting [2] was found to be 0.3 nM.
The same measure, in the same setting: the figure for `Nc1ncnn2c(-c3cnc4c(c3)C(=O)N(C3CN(C(=O)c5ccc(F)cc5)CC3F)CC4)cc(C(F)(F)F)c12` (stereo not drawn) [Z36, cis-3-(4-amino-5-(trifluoromethyl)pyrrolo[2,1-f][1,2,4]triazin-7-yl)-6-(4-fluoro-1-(4-fluorobenzoyl)pyrrolidin-3-yl)-7,8-dihydro-1,6-naphthyridin-5(6H)-one] is 45.3 nM; for `O=C(Nc1cn2nc(-c3cnc4c(c3)C(=O)N(Cc3cc(F)cc(F)c3OC3CCOCC3)CC4)ccc2n1)C1CC1` [Z37, N-(6-(6-(3,5-difluoro-2-((tetrahydro-2H-pyran-4-yl)oxy)benzyl)-5-oxo-5,6,7,8-tetrahydro-1,6-naphthyridin-3-yl)imidazo[1,2-b]pyridazin-2-yl)cyclopropanecarboxamide] it is 0.5 nM.
